Results from PMC5923414, “Terpenoids from the Soft Coral Sinularia sp. Collected in Yongxing Island” (Marine Drugs, 2018).
Where two headings read alike, the source gives them in different places.

Legend:
influenza A virus (H1N1) = assay: antiviral activity, CPE inhibition assay; assay type: cell-based
Experimental: (§1) The antiviral activities against influenza A virus (H1N1) and (PR8) were evaluated by the CPE inhibition assay as the literature reported. […]

[1] = molecular target: T1, protein tyrosine phosphatase 1B (PTP1B) (Homo sapiens, UniProt P18031); assay: biochemical; conditions: read-out: IC50, target inhibitory activity against PTP1B
T1 sequence (P18031 1-435): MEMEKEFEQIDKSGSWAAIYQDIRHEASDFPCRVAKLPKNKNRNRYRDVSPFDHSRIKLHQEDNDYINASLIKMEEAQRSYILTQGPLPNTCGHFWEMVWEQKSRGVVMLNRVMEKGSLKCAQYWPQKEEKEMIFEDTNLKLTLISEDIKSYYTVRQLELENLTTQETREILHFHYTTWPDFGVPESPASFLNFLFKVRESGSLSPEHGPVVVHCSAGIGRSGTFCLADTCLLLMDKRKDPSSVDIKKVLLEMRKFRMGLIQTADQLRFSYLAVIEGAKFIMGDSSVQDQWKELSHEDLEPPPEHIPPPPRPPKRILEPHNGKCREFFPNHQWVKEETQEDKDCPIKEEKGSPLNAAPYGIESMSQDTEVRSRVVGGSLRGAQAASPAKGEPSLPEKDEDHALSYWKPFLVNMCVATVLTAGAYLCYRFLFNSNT
Experimental: (§2) Evaluation of the inhibitory effects on acetylcholinesterase was performed by the spectrophotometric method developed by Ellman with slight modifications as reported, and on c-Met and PTP1B by using the enzyme-linked immunosorbent assay (ELISA) methodology.

[2] = system: Plasmodium falciparum 3D7; assay: in vitro antimalarial activity, SYBR-Green assay; assay type: cell-based; conditions: 10 nM dihydroartemisinine as positive control, read-out: IC50, antimalarial activity against P. falciparum 3D7
Experimental: The in vitro antimalarial activity was assessed against P. falciparum (3D7) using an SYBR-Green assay with 10 nM dihydroartemisinine as positive control. Twelve diluted samples (5 µM, 10 µM, 20 µM, 40 µM, 80 µM, 100 µM, 200 µM, 400 µM, 800 µM, 1 mM, 2 mM, and 4 mM) were added to the test wells to obtain the 50% inhibiting concentration.

cytotoxicity, MTT method = assay type: cell-based; conditions: human
Experimental: The cytotoxicities against Jurkat, MDA-MB-231, U2OS, HeLa, HCT-116, and A549 cell lines were assayed by MTT method with Adriamycin as a positive control. All the cell lines were purchased from Shanghai Institute of Cell Biology (Shanghai, China).

influenza A virus (PR8) = assay: antiviral activity, CPE inhibition assay; assay type: cell-based; conditions: read-out: IC50 against influenza A virus PR8
Experimental: as §1

acetylcholinesterase = acetylcholinesterase (Homo sapiens, UniProt P22303); assay: acetylcholinesterase inhibition, Ellman spectrophotometric method; assay type: biochemical; conditions: at 50 μg/mL; read-out: inhibition rate against acetylcholinesterase
Experimental: as §2

Chain of acetylcholinesterase (P22303 32-614, species assumed): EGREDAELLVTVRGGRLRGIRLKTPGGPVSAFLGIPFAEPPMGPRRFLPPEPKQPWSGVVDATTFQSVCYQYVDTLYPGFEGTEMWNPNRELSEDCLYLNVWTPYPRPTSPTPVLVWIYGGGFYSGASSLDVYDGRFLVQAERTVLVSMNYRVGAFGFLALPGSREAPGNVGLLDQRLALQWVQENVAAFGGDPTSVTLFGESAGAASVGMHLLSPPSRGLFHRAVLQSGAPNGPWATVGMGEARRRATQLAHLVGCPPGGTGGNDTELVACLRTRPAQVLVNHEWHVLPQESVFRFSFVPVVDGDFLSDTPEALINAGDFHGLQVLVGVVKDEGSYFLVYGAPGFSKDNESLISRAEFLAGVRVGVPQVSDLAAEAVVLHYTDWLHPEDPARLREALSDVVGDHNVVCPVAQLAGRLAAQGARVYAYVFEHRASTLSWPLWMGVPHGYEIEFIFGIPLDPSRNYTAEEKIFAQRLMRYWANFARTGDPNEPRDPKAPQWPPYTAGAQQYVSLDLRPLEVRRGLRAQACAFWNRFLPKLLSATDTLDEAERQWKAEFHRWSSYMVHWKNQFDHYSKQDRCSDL

Compound: NC(=O)c1ncn([C@@H]2O[C@H](CO)[C@@H](O)[C@H]2O)n1 [ribavirin, reference compound]
- IC50 (influenza A virus (H1N1); positive control, strain (H1N1 or PR8) not specified, read-out: IC50 of positive control, influenza A viruses): 103 µM

Compound: C=C(C)C1CCC(C)=CCCC(C)=CCCC2(C)OC2C1 [Compound 15, (1R,3S,4S,7E,11E)-3,4-epoxycembra-7,11,15-triene]
- IC50 [1]: 12.5 µM

Compound: C=C1CCC2(O)CC3(CCC(C(C)C)C3C1)OO2 (stereo not shown) [Compound 1, Sinuketal]
- IC50 [2]: 80 µM
- IC50 (cytotoxicity, MTT method; Jurkat cells, Jurkat cell line, read-out: IC50, cytotoxic activity toward Jurkat): 24.9 µM
- IC50 (cytotoxicity, MTT method; MDA-MB-231 cells, MDA-MB-231 cell line, read-out: IC50, cytotoxic activity toward MDA-MB-231): 32.3 µM
- IC50 (cytotoxicity, MTT method; U2OS cells, U2OS cell line, read-out: IC50, cytotoxic activity toward U2OS): 41.7 µM
- IC50 (influenza A virus (H1N1); H1N1, read-out: IC50 against influenza A virus H1N1): 172 µM
- IC50 (influenza A virus (PR8)): 443 µM
- inhibition at 50 µg/mL (acetylcholinesterase): 20.2%

Compound: C=C(C)[C@@H]1C/C=C2\C(=O)O[C@@H](C[C@]3(C)CC(=O)[C@H](CC(=O)C1)O3)[C@@H]2O [Compound 20, 5-episinuleptolide]
- IC50 (cytotoxicity, MTT method; HCT-116 cells, HCT-116 cell line, read-out: IC50, cytotoxicity against HCT-116): 33.3 µM
- IC50 (cytotoxicity, MTT method; HeLa cells, HeLa cell line, read-out: IC50, cytotoxicity against HeLa): 11.6 µM

Compound: CC(C)[C@@H]1CC[C@@](C)(O)[C@@H]2CCC(CO)=C[C@H]21 [Compound 11, 15-hydroxy-α-cadinol]
- IC50 [1]: 22.1 µM

Compound: C=C(C)C1CC=C(C(=O)OC)CC(=O)CC2(C)CC(=O)C(CC(=O)C1)O2 (stereo not shown) [Compound 5, sinulin D]
- IC50 [1]: 47.5 µM
